Assay results from ChEMBL document CHEMBL1157866, “Evaluation of anti-pigmentary effect of synthetic sulfonylamino chalcone” (Eur J Med Chem, 2010).
pIC50, pKi: −log10 of the molar value. Activity calls are given as the source filed them. No cut-off for these calls is given here.

Key:
B16 [1] = test: cells; settings: Mus musculus, B16, 48 h
Tyrosinase [2] = target: T1, Tyrosinase (Agaricus bisporus, UniProt O42713); test: Competitive inhibition of monophenolase activity of mushroom tyrosinase using as L-tyrosine substrate by Lineweaver-Burke plot analysis
T1 sequence (O42713 whole entry): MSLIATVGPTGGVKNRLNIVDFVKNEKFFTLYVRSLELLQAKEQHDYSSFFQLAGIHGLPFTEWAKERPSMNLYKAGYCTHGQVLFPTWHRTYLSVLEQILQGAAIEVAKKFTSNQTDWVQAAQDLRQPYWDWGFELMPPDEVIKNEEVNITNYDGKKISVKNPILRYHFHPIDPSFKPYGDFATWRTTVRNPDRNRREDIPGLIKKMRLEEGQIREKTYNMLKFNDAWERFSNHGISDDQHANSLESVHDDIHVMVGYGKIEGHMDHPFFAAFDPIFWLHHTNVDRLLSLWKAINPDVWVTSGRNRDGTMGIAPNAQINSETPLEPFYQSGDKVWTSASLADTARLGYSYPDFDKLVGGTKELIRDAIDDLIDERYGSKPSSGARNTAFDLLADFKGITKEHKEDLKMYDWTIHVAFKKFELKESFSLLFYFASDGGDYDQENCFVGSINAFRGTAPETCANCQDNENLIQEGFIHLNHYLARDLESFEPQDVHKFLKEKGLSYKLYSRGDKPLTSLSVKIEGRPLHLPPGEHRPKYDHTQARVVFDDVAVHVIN

B16 [3] = test: Inhibition of alpha-MSH-induced melanin production in mouse B16 cells assessed as reduction pigmentation at 20 uM after 48 hrs; type: functional, cell-based
Tyrosinase [4] = target: T1, Tyrosinase; test: (§1) Inhibition of monophenolase activity of mushroom tyrosinase using as L-tyrosine substrate by spectrophotometric analysis
B16 [5] = test: Reduction of alpha-MSH-induced tyrosinase related protein 1 expression in mouse B16 cells after 2 days by Western blot analysis; type: functional, cell-based
B16 [6] = test: Reduction of alpha-MSH-induced tyrosinase expression in mouse B16 cells after 2 days by Western blot analysis; type: functional, cell-based
B16 [7] = test: Reduction of alpha-MSH-induced tyrosinase related protein 2 expression in mouse B16 cells after 2 days by Western blot analysis; type: functional, cell-based
[8] = Cytotoxicity against mouse B16 cells at 10 uM after 72 hrs by MTT assay; type: cell-based; settings: read-out: Survival
Cavia porcellus [9] = test: Reduction of pigmentation in UV-induced hyperpigmentation brown guinea pig model at 0.3% applied topically bid for 4 weeks; type: functional, organism-based
Cavia porcellus [10] = test: Toxicity in UV-induced hyperpigmentation brown guinea pig model at 0.3% applied topically bid for 4 weeks; type: organism-based; settings: in vivo, topical_or_ocular, 672 h
[11] = Cytotoxicity against mouse B16 cells at 20 uM after 72 hrs by MTT assay; type: cell-based; settings: read-out: Survival
B16 [12] = test: Reduction of alpha-MSH-induced microphthalmia-associated transcription factor expression in mouse B16 cells after 2 days by Western blot analysis; type: functional, cell-based
B16 [13] = test: Inhibition of melanin production in mouse B16 cells after 48 hrs; type: functional, cell-based
[14] = Cytotoxicity against mouse B16 cells at 30 uM after 72 hrs by MTT assay; type: cell-based; settings: read-out: Survival
B16 [15] = test: Inhibition of alpha-MSH-induced melanin production in mouse B16 cells after 48 hrs
[16] = target: T2, Tyrosinase (Agaricus bisporus) (UniProt O42713); test: as §1
T2 sequence (whole entry): T1 sequence (O42713 whole entry)

B16 [17] = test: Cytotoxicity against mouse B16 cells up to 30 uM after 48 hrs by MTT assay; type: cell-based; settings: b16, 48 h

| Compound | pIC50 (B16 [1]) | pKi (Tyrosinase [2]) | pIC50 (Tyrosinase [4]) | Activity [16] | Activity (B16 [3]) | other results |
| --- | --- | --- | --- | --- | --- | --- |
| Nc1ccc(C(=O)/C=C/c2ccc(O)cc2)cc1 | 4.55 | 5.41 | 5.08 | – | Active | – |
| Cc1ccc(S(=O)(=O)Nc2ccc(C(=O)/C=C/c3ccc(O)cc3)cc2)cc1 | 4.98 | 4.90 | 4.63 | Dose-dependent effect | Active | Activity (B16 [5]): Active; Activity (B16 [6]): Active; Activity (B16 [7]): Active; viability at 72 h, 10 µM [8]: 92%; Activity (Cavia porcellus [9]): Active; Activity (Cavia porcellus [10]): Non-toxic; viability at 72 h, 20 µM [11]: 84%; Activity (B16 [12]): Active; Activity (B16 [13]): Active; viability at 72 h, 30 µM [14]: 78%; Activity (B16 [15]): Dose-dependent effect; Activity (B16 [17]): Non-toxic |
| O=C(/C=C/c1ccc(O)cc1)c1ccc(NS(=O)(=O)c2ccc(F)cc2)cc1 | 4.70 | 4.83 | 4.54 | Dose-dependent effect | – | – |
| O=C(/C=C/c1ccc(O)cc1)c1ccc(O)cc1 [4,4'-DIHYDROXYCHALCONE] | 4.31 | 5.54 | 5.32 | – | Active | – |
| O=C(/C=C/c1ccc(O)cc1)c1ccc(NS(=O)(=O)c2ccc(O)cc2)cc1 | 4.49 | 4.60 | 4.23 | Dose-dependent effect | – | – |

Further compounds by rising pKi (Tyrosinase [2]), results first:

| pIC50 (B16 [1]) | pKi (Tyrosinase [2]) | pIC50 (Tyrosinase [4]) | Activity [16] | Compound | Activity (B16 [3]) | other results |
| --- | --- | --- | --- | --- | --- | --- |
| 4.67 | 4.78 | 4.51 | Dose-dependent effect | Nc1ccc(S(=O)(=O)Nc2ccc(C(=O)/C=C/c3ccc(O)cc3)cc2)cc1 | – | – |
| 4.62 | 4.88 | 4.65 | Dose-dependent effect | O=C(/C=C/c1ccc(O)cc1)c1ccc(NS(=O)(=O)c2ccccc2)cc1 | – | – |
| – | 4.94 | 4.82 | Dose-dependent effect | O=C(/C=C/c1ccc(O)cc1)c1ccc(NS(=O)(=O)c2ccc([N+](=O)[O-])cc2)cc1 | – | – |
